Measurements from patent publication US20250277001A1, “PEPTIDE DERIVATIVES AND RELATED USES AS OREXIN AGONISTS” (CENTESSA PHARMACEUTICALS (UK) LIMITED, priority 2022, published 2025).
Read-outs that look alike come from different tables or passages of the source. Where a SMILES comes first, the peptide text is derived from it. [ ]: non-standard residue; d: D form. The star is where a group is joined. Malonyl(2,2-Me2,histaminyl) = CC(C)(C(=O)NCCc1cnc[nH]1)C(=O)*; hArg(Et2) = CCN=C(NCC)NCCCC[C@H](N)C(=O)O; d(hArg) = N=C(N)NCCCC[C@@H](N)C(=O)O; Gly(NCH2CH2Ph) = O=C(O)CNCCc1ccccc1; Hyp = O=C(O)[C@@H]1C[C@@H](O)CN1; hArg = N=C(N)NCCCC[C@H](N)C(=O)O; NMeN = CN[C@@H](CC(N)=O)C(=O)O; Aoc(2) = CCCCCC[C@H](N)C(=O)O; Phg = N[C@H](C(=O)O)c1ccccc1; Nle = CCCC[C@H](N)C(=O)O

Legend:
[1] = biological target: T1, human orexin type 2 receptor (hOX2R) (Homo sapiens, UniProt O43614); experiment: Measurement of orexin type 2 receptor agonist activity (CHO cells, FLIPR TETRA intracellular Ca2+); assay type: cell-based
T1 construct: expressed in transfected cells
T1 sequence (O43614 1-444): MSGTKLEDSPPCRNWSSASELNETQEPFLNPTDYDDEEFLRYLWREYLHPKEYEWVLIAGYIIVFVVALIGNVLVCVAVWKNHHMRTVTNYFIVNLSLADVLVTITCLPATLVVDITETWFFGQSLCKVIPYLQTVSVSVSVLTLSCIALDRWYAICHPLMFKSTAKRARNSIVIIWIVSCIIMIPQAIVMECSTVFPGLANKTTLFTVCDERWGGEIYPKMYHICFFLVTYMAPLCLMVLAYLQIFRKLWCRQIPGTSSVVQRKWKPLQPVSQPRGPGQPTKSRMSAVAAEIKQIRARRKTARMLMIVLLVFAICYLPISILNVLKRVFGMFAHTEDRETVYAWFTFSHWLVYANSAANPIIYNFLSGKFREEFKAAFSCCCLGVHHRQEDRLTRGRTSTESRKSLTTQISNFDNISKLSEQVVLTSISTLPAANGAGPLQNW
Source text: (§1) In some embodiments, the assay uses cells stably expressing either human orexin type 2 or human orexin type 1 receptor. In some embodiments, the cells are obtained by inserting the Orexin receptor cDNA into pcDNA3.1(+) plasmid vector, identifying clones by G418 drug resistance selection, and/or growing a single clone for OX2R-CHO and OX1R-CHO in bulk. In some embodiments, the assay is detected using Fluorescent Imaging Plate Reader TETRA (FLIPR TETRA: manufactured by Molecular Devices). In some embodiments, the agonist activity of the test peptide is calculated assuming that the fluorescence value of the well containing only the dilution buffer is 0% and the fluorescence value of the well containing 10 nM human orexin A (Tocris) buffer is 100%.
(§2) Stable cell line generation. Obtainment of cells stably expressing either human orexin type 2 or human orexin type 1 receptor: to obtain a stable cell line the Orexin receptor cDNA was inserted into pcDNA3.1(+) plasmid vector and clones identified by G418 drug resistance selection. […] A single clone for OX2R-CHO and OX1R-CHO were grown in bulk and frozen to generate a cell bank for routine screening.
(§3) Measurement of orexin type 2 receptor agonist activity. Chinese hamster ovary (CHO) cells expressing human orexin type 2 receptor (hOX2R) seeded in each well of 384 well black clear bottom plates (BD Flacon) at 10,000 cells per well and cultured for 24 h in an Ham's F12 (Gibco) medium containing 10% fetal calf serum (Sigma Aldrich) under the conditions of 37° C., 5% CO2. After removal of the medium, 50 μL of assay buffer 1 (0.1% bovine serum albumin (Sigma Aldrich), 20 mM HEPES (Molecular Dimensions), […] probenecid (Sigma Aldrich), 1× Calcium 5 dye (Molecular Devices) in Hank's balanced salt solution (Invitrogen)) was added, and the cells were incubated for 60 min under the conditions of 37° C., 5% CO2. A test peptide was dissolved in dimethyl sulfoxide (Sigma Aldrich) to 1 mM, and then diluted with assay buffer 2 (20 mM HEPES, Hank's balanced salt solution, 0.1% bovine serum albumin). For the reaction, a test peptide solution (10 μl) was added using Fluorescent Imaging Plate Reader TETRA (FLIPR TETRA: manufactured by Molecular Devices), a fluorescence value (excitation wavelength 488 nm, measurement wavelength 570 nm) of each well was measured every one second for 2 min, and the agonist activity was determined using the area of the fluorescence value as an indicator of intracellular Ca^2+ concentration. The agonist activity of the test peptide was calculated assuming that the fluorescence value of the well added with only the dilution buffer was 0% and the fluorescence value of the well added with 10 nM human orexin A (Tocris) buffer was 100%. As used herein, Emax indicates the value at 1 μM concentration when orexin A is converted to a full agonist (maximum value of agonist activity: 100%).

[2] = biological target: T2, human orexin type 1 receptor (hOX1R) (Homo sapiens, UniProt O43613); experiment: Measurement of orexin type 1 receptor agonist activity (CHO cells, FLIPR TETRA intracellular Ca2+); assay type: cell-based
T2 construct: expressed in transfected cells
T2 sequence (O43613 1-425): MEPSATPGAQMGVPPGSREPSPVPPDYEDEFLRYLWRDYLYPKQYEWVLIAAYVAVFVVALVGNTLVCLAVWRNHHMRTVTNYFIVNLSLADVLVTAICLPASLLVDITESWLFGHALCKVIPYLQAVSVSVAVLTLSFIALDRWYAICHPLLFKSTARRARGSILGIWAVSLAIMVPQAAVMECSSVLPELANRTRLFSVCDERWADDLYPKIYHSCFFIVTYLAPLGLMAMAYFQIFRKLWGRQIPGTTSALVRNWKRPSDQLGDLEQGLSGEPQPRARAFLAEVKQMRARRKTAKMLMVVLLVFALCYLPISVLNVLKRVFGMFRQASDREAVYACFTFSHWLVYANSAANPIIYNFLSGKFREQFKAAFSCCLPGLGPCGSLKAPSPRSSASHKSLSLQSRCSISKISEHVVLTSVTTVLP
Source text: as §1, §2
as §3, with “type 1” for “type 2”, “receptor (hOX1R) were” for “receptor (hOX2R)”

[3] = CHO cells expressing hOX2R, Ca2+ fluorescence, read-out: hOX2 pEC50 (converted)
[4] = CHO cells expressing hOX1R, Ca2+ fluorescence, read-out: hOX1 pEC50 (converted)

Row | SMILES | EC50 [1] | EC50 [2] | EC50 [1, 3] | EC50 [2, 4] | other results
1 | CCCCCC[C@H](NC(=O)[C@@H](NC(=O)[C@H](CC(C)C)NC(=O)[C@@H](NC(=O)CNC(=O)[C@@H](NC(=O)[C@H](C)NC(=O)[C@@H]1C[C@@H](O)CN1C(=O)[C@H](CC(N)=O)N(C)C(=O)CN(CCc1ccccc1)C(=O)[C@H](CCCNC(=N)N)NC(=O)[C@H](CCCNC(=N)N)NC(=O)[C@@H]1CCCN1C(=O)[C@H](CCCCNC(=N)N)NC(=O)[C@H](CCC(N)=O)NC(=O)C(C)(C)C(=O)NCCc1cnc[nH]1)c1ccccc1)[C@@H](C)CC)[C@@H](C)O)C(N)=O [compound 17] ({Malonyl(2,2-Me2,histaminyl)}-Q[hArg]PRR[Gly(NCH2CH2Ph)][NMeN][Hyp]A[Phg]GILT[Aoc(2)]-NH2) | < 0.1 nM | > 10 nM | – | – | –
2 | CCCCCC[C@H](NC(=O)[C@@H](NC(=O)[C@H](CC(C)C)NC(=O)[C@@H](NC(=O)CNC(=O)[C@@H](NC(=O)[C@H](C)NC(=O)[C@H](Cc1c[nH]cn1)NC(=O)[C@H](CC(N)=O)NC(=O)CN(CCc1ccccc1)C(=O)[C@H](CCCCNC(=NCC)NCC)NC(=O)[C@@H]1CCCN1C(=O)[C@H](CCCCNC(=N)N)NC(=O)[C@H](CCC(N)=O)NC(=O)C(C)(C)C(=O)NCCc1cnc[nH]1)c1ccccc1)[C@@H](C)CC)[C@@H](C)O)C(N)=O [compound 1] ({Malonyl(2,2-Me2,histaminyl)}-Q[hArg]P[hArg(Et2)][Gly(NCH2CH2Ph)]NHA[Phg]GILT[Aoc(2)]-NH2) | < 0.1 nM | > 10 nM | – | – | –
3 | CCCC[C@H](NC(=O)[C@@H](NC(=O)[C@H](CC(C)C)NC(=O)[C@@H](NC(=O)CNC(=O)[C@@H](NC(=O)[C@H](C)NC(=O)[C@H](Cc1c[nH]cn1)NC(=O)[C@H](CC(N)=O)NC(=O)CNC(=O)[C@H](CO)NC(=O)[C@H](C)NC(=O)[C@H](Cc1c[nH]c2ccccc12)NC(=O)[C@@H](CC(C)C)NC(=O)[C@@H](N)CC(C)C)c1ccccc1)[C@@H](C)CC)[C@@H](C)O)C(N)=O [compound 11] (H-L[dL]WASGNHA[Phg]GILT[Nle]-NH2) | – | – | < 0.1 nM | > 10 nM | –
4 | CCCCCC[C@H](NC(=O)[C@@H](NC(=O)[C@H](CC(C)C)NC(=O)[C@@H](NC(=O)CNC(=O)[C@@H](NC(=O)[C@H](C)NC(=O)[C@H](Cc1c[nH]cn1)NC(=O)[C@H](CC(N)=O)NC(=O)CN(CCc1ccccc1)C(=O)[C@H](CCCNC(=N)N)NC(=O)[C@@H]1CCCN1C(=O)[C@H](CCCCNC(=N)N)NC(=O)[C@H](CCC(N)=O)NC(=O)C(C)(C)C(=O)NCCc1cnc[nH]1)c1ccccc1)[C@@H](C)CC)[C@@H](C)O)C(N)=O [compound 2] ({Malonyl(2,2-Me2,histaminyl)}-Q[hArg]PR[Gly(NCH2CH2Ph)]NHA[Phg]GILT[Aoc(2)]-NH2) | < 0.1 nM | > 10 nM | – | – | –
5 | CCCC[C@H](NC(=O)[C@@H](NC(=O)[C@H](CC(C)C)NC(=O)[C@@H](NC(=O)CNC(=O)[C@H](C)NC(=O)[C@H](C)NC(=O)[C@H](Cc1c[nH]cn1)NC(=O)[C@H](CC(N)=O)NC(=O)CNC(=O)[C@H](CO)NC(=O)[C@H](C)NC(=O)[C@H](Cc1c[nH]c2ccccc12)NC(=O)C(C)(C)C(=O)NCCc1cnc[nH]1)[C@@H](C)CC)[C@@H](C)O)C(N)=O [SEQ ID NO:7, CAP-TRP-ALA-SER-GLY-ASN-HIS-ALA-ALA-GLY-ILE-LEU-THR-NLE-NH2] ({Malonyl(2,2-Me2,histaminyl)}-WASGNHAAGILT[Nle]-NH2) | – | – | – | – | EC50 ([1]; 13 amino acid sequences, Example 4, read-out: OX2 pEC50 (converted)): > 1.58 nM; EC50 ([2]; 13 amino acid sequences, Example 4, read-out: OX1 pEC50 (converted)): > 316 nM
6 | CCCCCC[C@H](NC(=O)[C@@H](NC(=O)[C@H](CC(C)C)NC(=O)[C@@H](NC(=O)CNC(=O)[C@@H](NC(=O)[C@H](C)NC(=O)[C@@H]1C[C@@H](O)CN1C(=O)[C@H](CC(N)=O)N(C)C(=O)CN(CCc1ccccc1)C(=O)[C@H](CCCNC(=N)N)NC(=O)[C@@H]1CCCN1C(=O)[C@@H](CCCCNC(=N)N)NC(=O)[C@@H](CCC(N)=O)NC(=O)C(C)(C)C(=O)NCCc1cnc[nH]1)c1ccccc1)[C@@H](C)CC)[C@@H](C)O)C(N)=O [compound 7] ({Malonyl(2,2-Me2,histaminyl)}-[dQ][d(hArg)]PR[Gly(NCH2CH2Ph)][NMeN][Hyp]A[Phg]GILT[Aoc(2)]-NH2) | < 0.1 nM | > 10 nM | – | – | –
7 | CCCCCC[C@H](NC(=O)[C@@H](NC(=O)[C@H](CC(C)C)NC(=O)[C@@H](NC(=O)CNC(=O)[C@@H](NC(=O)[C@H](C)NC(=O)[C@@H]1C[C@@H](O)CN1C(=O)[C@H](CC(N)=O)NC(=O)CN(CCc1ccccc1)C(=O)[C@H](CCCNC(=N)N)NC(=O)[C@H](CCCNC(=N)N)NC(=O)[C@@H]1C[C@@H](O)CN1C(=O)[C@@H]1C[C@@H](O)CN1C(=O)[C@@H]1C[C@@H](O)CN1)c1ccccc1)[C@@H](C)CC)[C@@H](C)O)C(N)=O [compound 15] (H-[Hyp][Hyp][Hyp]RR[Gly(NCH2CH2Ph)]N[Hyp]A[Phg]GILT[Aoc(2)]-NH2) | – | – | < 0.1 nM | 1 to 10 nM | –
8 | CCCC[C@H](NC(=O)[C@@H](NC(=O)[C@H](CC(C)C)NC(=O)[C@@H](NC(=O)CNC(=O)[C@H](C)NC(=O)[C@H](C)NC(=O)[C@H](Cc1c[nH]cn1)NC(=O)[C@H](CC(N)=O)NC(=O)CNC(=O)[C@H](CO)NC(=O)[C@@H](C)NC(=O)[C@@H](Cc1ccccc1)NC(=O)[C@H](CC(C)C)NC(=O)[C@@H](N)CC(C)C)[C@@H](C)CC)[C@@H](C)O)C(N)=O [compound 12] (H-LL[dF][dA]SGNHAAGILT[Nle]-NH2) | – | – | < 0.1 nM | > 10 nM | –
9 | CCCC[C@H](NC(=O)[C@@H](NC(=O)[C@H](CC(C)C)NC(=O)[C@@H](NC(=O)CNC(=O)[C@H](C)NC(=O)[C@H](C)NC(=O)[C@H](Cc1c[nH]cn1)NC(=O)[C@H](CC(N)=O)NC(=O)CNC(=O)[C@H](CO)NC(=O)[C@@H](C)NC(=O)[C@@H](Cc1ccccc1)NC(=O)[C@H](CC(C)C)NC(=O)[C@@H](N)Cc1ccccc1)[C@@H](C)CC)[C@@H](C)O)C(N)=O [compound 13] (H-FL[dF][dA]SGNHAAGILT[Nle]-NH2) | – | – | < 0.1 nM | > 10 nM | –
